From EP1266900A1, “Carbamates of rapamycin” (Wyeth, priority 1992, dated 1994)
Several values for one entry are separate records, joined by “and”; a condition that tells them apart may be missing. Equal values may be shown once. Where a name gives a salt, the structure may show the parent alone. Read-outs that look alike come from different tables or passages of the source.

Columns and labels:
pinch skin graft = pinch skin graft survival time, in vivo; parameters: species or system male C3H(H-2K) recipients; details: dose of 4 mg/kg, intraperitoneally or orally, untreated grafts usually rejected within 6-7 days
Description: (§1) Immunosuppressive activity for representative compounds of this invention was evaluated in an in vitro standard pharmacological test procedure to measure lymphocyte proliferation (LAF) and in an in vivo standard pharmacological test procedure which evaluated the survival time of a pinch skin graft.
Representative compounds of this invention were also evaluated in an in vivo test procedure designed to determine the survival time of pinch skin graft from male BAB/c donors transplanted to male C3H(H-2K) recipients. The method is adapted from Billingham R.E. and Medawar P.B., J. Exp. Biol. 28:385-402, (1951). Briefly, a pinch skin graft from the donor was grafted on the dorsum of the recipient as a allograft, and an isograft was used as control in the same region. The recipients were treated with either varying concentrations of test compounds intraperitoneally or orally. Rapamycin was used as a test control. Untreated recipients serve as rejection control. The graft was monitored daily and observations were recorded until the graft became dry and formed a blackened scab. This was considered as the rejection day. The mean graft survival time (number of days ± S.D.) of the drug treatment group was compared with the control group. […] Results are expressed as the mean survival time in days. Untreated (control) pinch skin grafts are usually rejected within 6-7 days. The results shown in Table 1 are based on a dose of 4 mg/kg of test compound. A survival time of 12.0 ± 1.7 days was obtained for rapamycin at 4 mg/kg.

[1] = test system: cells from the thymus of normal BALB/c mice; test: comitogen-induced thymocyte proliferation procedure (LAF); assay type: cell-based; details: for IC50: thymocytes cultured for 72 hours with PHA and IL-1, tritiated thymidine incorporation, read-out: LAF IC50; for LAF (ratio): ratio compared with rapamycin, greater than 1 = inhibited thymocyte proliferation to a greater extent than rapamycin
Description: as §1
The comitogen-induced thymocyte proliferation procedure (LAF) was used as an in vitro measure of the immunosuppressive effects of representative compounds. Briefly, cells from the thymus of normal BALB/c mice are cultured for 72 hours with PHA and IL-1 and pulsed with tritiated thymidine during the last six hours. Cells are cultured with and without various concentrations of rapamycin, cyclosporin A, or test compound. Cells are harvested and incorporated radioactivity is determined. Inhibition of lymphoproliferation is assessed as percent change in counts per minute from non-drug treated controls. For each compound evaluated, rapamycin was also evaluated for the purpose of comparison. An IC50 was obtained for each test compound as well as for rapamycin. […] A positive ratio indicates immunosuppressive activity. […] Calculation of the ratio is shown below. (()^3 H-control thymus cells -)/(()^3 H-control thymus cells -)(()^3 H-rapamycin-treated thymus cells)/(()^3 H-test compound-treated cells) [formula]

Row | SMILES | IC50 ([1]; Mus musculus, Thymocyte, 72 h) [nM] | LAF (ratio) [1] | further results
1 | CO[C@H]1C[C@@H]2CC[C@@H](C)[C@@](O)(O2)C(=O)C(=O)N2CCCC[C@H]2C(=O)O[C@H]([C@H](C)C[C@@H]2CC[C@@H](OC(N)=O)[C@H](OC)C2)CC(=O)[C@H](C)/C=C(\C)[C@@H](O)[C@@H](OC)C(=O)[C@H](C)C[C@H](C)/C=C/C=C/C=C/1C [Example 1, Rapamycin 42-ester with carbamic acid] | 1.7 | 1.29 | Skin Graft (days ± SD), mean survival time (pinch skin graft): 11.7 ± 0.5 days
2 | CO[C@H]1C[C@@H]2CC[C@@H](C)[C@@](O)(O2)C(=O)C(=O)N2CCCC[C@H]2C(=O)O[C@H]([C@H](C)C[C@@H]2CC[C@@H](OC(=O)NCCO)[C@H](OC)C2)CC(=O)[C@H](C)/C=C(\C)[C@@H](O)[C@@H](OC)C(=O)[C@H](C)C[C@H](C)/C=C/C=C/C=C/1C [Example 2, Rapamycin 42-ester with 2-hydroxyethyl carbamic acid] |  | 1.22 and 1.09 | Skin Graft (days ± SD), mean survival time (pinch skin graft): 10.3 ± 0.8 days
3 | CO[C@H]1C[C@@H]2CC[C@@H](C)[C@@](O)(O2)C(=O)C(=O)N2CCCC[C@H]2C(=O)O[C@H]([C@H](C)C[C@@H]2CC[C@@H](OC(=O)NCCN(C)C)[C@H](OC)C2)CC(=O)[C@H](C)/C=C(\C)[C@@H](O)[C@@H](OC)C(=O)[C@H](C)C[C@H](C)/C=C/C=C/C=C/1C [Example 3, Rapamycin 42-ester with 2-(dimethylamino)ethyl carbamic acid] | 6.5 | 0.34 | 
4 | CO[C@H]1C[C@@H]2CC[C@@H](C)[C@@](O)(O2)C(=O)C(=O)N2CCCC[C@H]2C(=O)O[C@H]([C@H](C)C[C@@H]2CC[C@@H](OC(=O)NN)[C@H](OC)C2)CC(=O)[C@H](C)/C=C(\C)[C@@H](O)[C@@H](OC)C(=O)[C@H](C)C[C@H](C)/C=C/C=C/C=C/1C [Example 4, Rapamycin 42-ester with aminocarbamic acid] | 10 | 0.45 | Skin Graft (days ± SD), mean survival time (pinch skin graft): 9.8 ± 0.8 days
5 | CO[C@H]1C[C@@H]2CC[C@@H](C)[C@@](O)(O2)C(=O)C(=O)N2CCCC[C@H]2C(=O)O[C@H]([C@H](C)C[C@@H]2CC[C@@H](OC(=O)NO)[C@H](OC)C2)CC(=O)[C@H](C)/C=C(\C)[C@@H](O)[C@@H](OC)C(=O)[C@H](C)C[C@H](C)/C=C/C=C/C=C/1C [Example 5, Rapamycin 42-ester with hydroxycarbamic acid] | 2.1 | 1.19 | 
6 | CO[C@H]1C[C@@H]2CC[C@@H](C)[C@@](O)(O2)C(=O)C(=O)N2CCCC[C@H]2C(=O)O[C@H]([C@H](C)C[C@@H]2CC[C@@H](OC(=O)NCCc3ccccn3)[C@H](OC)C2)CC(=O)[C@H](C)/C=C(\C)[C@@H](O)[C@@H](OC)C(=O)[C@H](C)C[C@H](C)/C=C/C=C/C=C/1C [Example 6, Rapamycin 42-ester with 2-(pyridin-2-yl)-ethyl carbamic acid] |  | 5.1 | Skin Graft (days ± SD), mean survival time (pinch skin graft; 4 mg/kg): 11.40 ± 0.6 days; IC50 [1]: 0.8 nM
7 | CO[C@H]1C[C@@H]2CC[C@@H](C)[C@@](O)(O2)C(=O)C(=O)N2CCCC[C@H]2C(=O)O[C@H]([C@H](C)C[C@@H]2CC[C@@H](OC(=O)NCCc3ccccn3)[C@H](OC)C2)CC(=O)[C@H](C)/C=C(\C)[C@@H](O)[C@@H](OC)C(=O)[C@H](C)C[C@H](C)/C=C/C=C/C=C/1C [Example 7, Rapamycin 42-ester with 2-(pyridin-2-yl)-ethyl carbamic acid hydrochloride salt] |  |  | Skin Graft (days ± SD), mean survival time (pinch skin graft; hydrochloride salt, 4 mg/kg): 10.33 ± 0.5 days; LAF (ratio) ([1]; hydrochloride salt): 2.3; IC50 ([1]; hydrochloride salt): 1.2 nM
8 | CO[C@H]1C[C@@H]2CC[C@@H](C)[C@@](O)(O2)C(=O)C(=O)N2CCCC[C@H]2C(=O)O[C@H]([C@H](C)C[C@@H]2CC[C@@H](OC(=O)NCCc3ccccn3)[C@H](OC)C2)CC(=O)[C@H](C)/C=C(\C)[C@@H](O)[C@@H](OC)C(=O)[C@H](C)C[C@H](C)/C=C/C=C/C=C/1C [Example 8, Rapamycin 42-ester with 2-(pyridin-2-yl)ethylcarbamic acid methanesulfonate salt] |  |  | LAF (ratio) ([1]; methanesulfonate salt): 4.4; IC50 ([1]; methanesulfonate salt): 0.2 nM
9 | CO[C@H]1C[C@@H]2CC[C@@H](C)[C@@](O)(O2)C(=O)C(=O)N2CCCC[C@H]2C(=O)O[C@H]([C@H](C)C[C@@H]2CC[C@@H](OC(=O)NCc3ccccn3)[C@H](OC)C2)CC(=O)[C@H](C)/C=C(\C)[C@@H](O)[C@@H](OC)C(=O)[C@H](C)C[C@H](C)/C=C/C=C/C=C/1C [Example 10, Rapamycin 42-ester with 2-pyridinylmethyl carbamic acid] | 0.1 | 3.8 | Skin Graft (days ± SD), mean survival time (pinch skin graft): 10.17 ± 1.0 days
10 | CO[C@H]1C[C@@H]2CC[C@@H](C)[C@@](O)(O2)C(=O)C(=O)N2CCCC[C@H]2C(=O)O[C@H]([C@H](C)C[C@@H]2CC[C@@H](OC(=O)NCc3cccnc3)[C@H](OC)C2)CC(=O)[C@H](C)/C=C(\C)[C@@H](O)[C@@H](OC)C(=O)[C@H](C)C[C@H](C)/C=C/C=C/C=C/1C [Example 12, Rapamycin 42-ester with 3-pyridinylmethyl carbamic acid] | 1.1 | 3.8 | Skin Graft (days ± SD), mean survival time (pinch skin graft; 4 mg/kg): 9.80 ± 1.1 days
11 | CO[C@H]1C[C@@H]2CC[C@@H](C)[C@@](O)(O2)C(=O)C(=O)N2CCCC[C@H]2C(=O)O[C@H]([C@H](C)C[C@@H]2CC[C@@H](OC(=O)N3CCN(CCCO)CC3)[C@H](OC)C2)CC(=O)[C@H](C)/C=C(\C)[C@@H](O)[C@@H](OC)C(=O)[C@H](C)C[C@H](C)/C=C/C=C/C=C/1C [Example 23, Rapamycin 42-ester with 4-(3-hydroxypropyl)piperazine-1-carboxylic acid] | 3.4 | 1.4 | 
12 | CO[C@H]1C[C@@H]2CC[C@@H](C)[C@@](O)(O2)C(=O)C(=O)N2CCCC[C@H]2C(=O)O[C@H]([C@H](C)C[C@@H]2CC[C@@H](OC(=O)NCCCN(CCO)CCO)[C@H](OC)C2)CC(=O)[C@H](C)/C=C(\C)[C@@H](O)[C@@H](OC)C(=O)[C@H](C)C[C@H](C)/C=C/C=C/C=C/1C [Example 24, Rapamycin 42-ester with [3-[bis(2-hydroxyethyl)amino]propyl]carbamic acid] | 40 | 0.1 | 
13 | CO[C@H]1C[C@@H]2CC[C@@H](C)[C@@](O)(O2)C(=O)C(=O)N2CCCC[C@H]2C(=O)O[C@H]([C@H](C)C[C@@H]2CC[C@@H](OC(=O)N3CCOCC3)[C@H](OC)C2)CC(=O)[C@H](C)/C=C(\C)[C@@H](O)[C@@H](OC)C(=O)[C@H](C)C[C@H](C)/C=C/C=C/C=C/1C [Example 26, Rapamycin 42-ester with morpholine-4-carboxylic acid] | 0.2 | 6.2 | 
14 | CO[C@H]1C[C@@H]2CC[C@@H](C)[C@@](O)(O2)C(=O)C(=O)N2CCCC[C@H]2C(=O)O[C@H]([C@H](C)C[C@@H]2CC[C@@H](OC(=O)N3CCN(C)CC3)[C@H](OC)C2)CC(=O)[C@H](C)/C=C(\C)[C@@H](O)[C@@H](OC)C(=O)[C@H](C)C[C@H](C)/C=C/C=C/C=C/1C [Example 27, Rapamycin 42-ester with 4-methylpiperazine-1-carboxylic acid] | 1.2 | 1.2 | 
15 | CO[C@H]1C[C@@H]2CC[C@@H](C)[C@@](O)(O2)C(=O)C(=O)N2CCCC[C@H]2C(=O)O[C@H]([C@H](C)C[C@@H]2CC[C@@H](OC(=O)N3CCNCC3)[C@H](OC)C2)CC(=O)[C@H](C)/C=C(\C)[C@@H](O)[C@@H](OC)C(=O)[C@H](C)C[C@H](C)/C=C/C=C/C=C/1C [Example 28, Rapamycin 42-ester with piperazine-1-carboxylic acid] | 4.2 | 1.1 | 
